pEC50, pIC50, pKi: −log10 of the molar value. Bounds are passed on as bounds.

Broadly, the pIC50 is the IC50 on a negative log10 scale, so that one unit is a factor of ten. Broadly, the pKi is −log10 of the Ki, conventionally taken in molar units. The pEC50 is the EC50 on a negative log10 scale, so that one unit is a factor of ten. The term IC50 denotes the concentration that gives 50% inhibition.

For one assay, the target named is T1, Lysophosphatidic acid receptor 5 (Homo sapiens, UniProt Q9H1C0). Kind of assay: Antagonist activity at human LPA5 receptor expressed in CHO cells assessed as inhibition of LPA stimulated calcium release incubated for 20 mins followed by […] and measured for 90 seconds. In kind it is cell-based.
T1 sequence (Q9H1C0 whole entry): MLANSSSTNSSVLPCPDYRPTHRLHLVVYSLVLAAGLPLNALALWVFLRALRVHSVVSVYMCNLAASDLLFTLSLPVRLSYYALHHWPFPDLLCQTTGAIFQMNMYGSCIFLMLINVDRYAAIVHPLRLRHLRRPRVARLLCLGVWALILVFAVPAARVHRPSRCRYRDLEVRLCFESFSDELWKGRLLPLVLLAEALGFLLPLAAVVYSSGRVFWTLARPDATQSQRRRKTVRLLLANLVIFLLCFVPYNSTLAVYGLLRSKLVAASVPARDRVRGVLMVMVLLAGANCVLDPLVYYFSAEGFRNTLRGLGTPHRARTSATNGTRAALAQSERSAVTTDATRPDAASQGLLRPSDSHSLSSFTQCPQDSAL
Conditions: not given
Regarding `Cc1c(COC(C)(C)C(=O)NCc2ccc(C(=O)O)cc2)nn(-c2ccc(Cl)cc2Cl)c1-c1ccc(Cl)cc1`, the pIC50 was 5.54.

For the next assay, the target named is T2, Lysophosphatidic acid receptor 1 (Homo sapiens, UniProt Q92633). Briefly: Antagonist activity at LPA1 receptor (unknown origin) assessed as inhibition constant.
T2 sequence (Q92633 whole entry): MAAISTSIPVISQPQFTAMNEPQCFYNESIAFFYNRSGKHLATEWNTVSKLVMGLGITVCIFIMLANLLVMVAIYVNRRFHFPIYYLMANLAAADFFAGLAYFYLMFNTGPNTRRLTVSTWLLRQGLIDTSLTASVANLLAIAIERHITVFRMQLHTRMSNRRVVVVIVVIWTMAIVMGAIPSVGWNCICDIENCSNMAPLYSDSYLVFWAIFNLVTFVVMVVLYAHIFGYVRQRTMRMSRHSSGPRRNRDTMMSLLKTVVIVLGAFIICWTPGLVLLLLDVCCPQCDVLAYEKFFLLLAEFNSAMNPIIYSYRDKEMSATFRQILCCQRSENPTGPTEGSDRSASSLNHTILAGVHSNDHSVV
Conditions: not given
For the compound `CC1=C(NC(=O)OC(C)c2ccccc2Cl)C(c2ccc(CSCCC(=O)O)cc2)ON1` (stereo not given), the pKi is 5.19.

A further assay deals with T2, Lysophosphatidic acid receptor 1. Briefly: Antagonist activity at human LPA1 receptor expressed in CHO cells. It counts as cell-based.
Conditions: not given
For the compound `Cc1noc(-c2ccc(-c3ccc(CC(=O)O)c4c3CCC4)cc2)c1NC(=O)OC(C)c1ccccc1Cl` (stereo not given), the pEC50 was > 7.30.

Consider `CC(OC(=O)Nc1c(-c2ccc(-c3ccc(C4(C(=O)O)CC4)cc3)cc2)oc2cnccc12)c1ccccc1Cl` (stereo not given), for which the pEC50 was > 7.30. The same measure, in the same setting: as for `CC(OC(=O)Nc1c(-c2ccc(-c3ccc(C4(C(=O)O)CC4)cc3)cc2)oc2cnccc12)c1ccccc1` (stereo not given), the figure is > 7.30.

For a further assay, the target named is T3, Lysophosphatidic acid receptor 2 (Homo sapiens, UniProt Q9HBW0). Kind of assay: Antagonist activity at human LPA2 receptor assessed as inhibition of LPA-induced calcium release.
T3 sequence (Q9HBW0 whole entry): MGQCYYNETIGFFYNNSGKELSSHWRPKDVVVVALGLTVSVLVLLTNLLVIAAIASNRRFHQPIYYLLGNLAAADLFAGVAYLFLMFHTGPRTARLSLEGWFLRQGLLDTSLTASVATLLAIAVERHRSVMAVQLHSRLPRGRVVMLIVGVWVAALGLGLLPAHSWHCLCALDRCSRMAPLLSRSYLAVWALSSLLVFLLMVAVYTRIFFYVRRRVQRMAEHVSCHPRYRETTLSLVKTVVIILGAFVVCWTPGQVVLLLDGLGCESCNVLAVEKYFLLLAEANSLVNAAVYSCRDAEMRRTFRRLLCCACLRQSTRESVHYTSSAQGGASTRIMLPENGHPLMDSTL
Conditions: not given
On to `O=C1CC(O)(C(F)(F)F)c2c(-c3ccc(F)cc3)n[nH]c2N1` (stereo not given), for which the pIC50 is > 6.00. The same measure, in the same setting: as for `O=C1CC(O)(C(F)(F)F)c2c(-c3cccc(Cl)c3)n[nH]c2N1` (stereo not given), the figure is > 6.00. The same measure, in the same setting: next, `O=C1CC(O)(C(F)(F)F)c2c(-c3cccc(C(F)(F)F)c3)n[nH]c2N1` (stereo not given): > 6.00. `Cc1ccc(-c2n[nH]c3c2C(O)(C(F)(F)F)CC(=O)N3)cc1` (stereo not given): the negative logarithm of the IC50 (pIC50) is > 6.00. The same measure, in the same setting: as for `O=C1CC(O)(C(F)(F)F)c2c(-c3ccncc3)n[nH]c2N1` (stereo not given), the figure is > 6.00. Consider `COc1ccc(-c2n[nH]c3c2C(O)(C(F)(F)F)CC(=O)N3)cc1` (stereo not given), for which the negative logarithm of the IC50 (pIC50) is > 6.00.

On to `O=C1CC(O)(C(F)(F)F)c2c(-c3cccc(F)c3)n[nH]c2N1` (stereo not given), for which the pIC50 was > 6.00.

As to `COc1cccc(-c2n[nH]c3c2C(O)(C(F)(F)F)CC(=O)N3)c1` (stereo not given), the pIC50 is > 6.00. The same measure, in the same setting: as for `O=C1CC(O)(C(F)(F)F)c2c(-c3cccc(Br)c3)n[nH]c2N1` (stereo not given), the figure is > 6.00; as for `O=C1CC(O)(C(F)(F)F)c2c(-c3cccs3)n[nH]c2N1` (stereo not given), > 6.00. Turning to `O=C1CC(O)(C(F)(F)F)c2c(-c3ccccc3)n[nH]c2N1` (stereo not given), the negative-log IC50 (pIC50) was > 6.00.

The target in a further assay is T4, Lysophosphatidic acid receptor 3 (Homo sapiens, UniProt Q9UBY5).
T4 sequence (Q9UBY5 whole entry): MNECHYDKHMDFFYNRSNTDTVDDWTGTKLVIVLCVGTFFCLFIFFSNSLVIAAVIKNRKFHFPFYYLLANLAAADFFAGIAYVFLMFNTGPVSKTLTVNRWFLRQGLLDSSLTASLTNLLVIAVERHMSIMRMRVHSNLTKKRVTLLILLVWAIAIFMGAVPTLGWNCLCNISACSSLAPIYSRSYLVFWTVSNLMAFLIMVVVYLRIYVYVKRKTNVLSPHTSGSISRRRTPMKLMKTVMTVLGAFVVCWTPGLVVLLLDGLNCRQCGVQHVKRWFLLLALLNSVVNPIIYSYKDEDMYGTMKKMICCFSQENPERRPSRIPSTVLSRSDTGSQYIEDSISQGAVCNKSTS
Kind of assay: Antagonist activity at human LPA3 receptor. It counts as cell-based, CHO.
Conditions: not given
Turning to `Cc1noc(-c2ccc(-c3ccc(CC(=O)O)c4c3CCC4)cc2)c1NC(=O)OC(C)c1ccccc1Cl` (stereo not given), the pEC50 is > 7.30. In the case of `CC(OC(=O)Nc1c(-c2ccc(-c3ccc(C4(C(=O)O)CC4)cc3)cc2)oc2cnccc12)c1ccccc1Cl` (stereo not given), the pEC50 is > 7.30. On the same count and under the same terms, as for `CC(OC(=O)Nc1c(-c2ccc(-c3ccc(C4(C(=O)O)CC4)cc3)cc2)oc2cnccc12)c1ccccc1` (stereo not given), the figure is > 7.30.

The target in the next assay is T1, Lysophosphatidic acid receptor 5. Briefly: Antagonist activity at human LPA5 receptor by FLIPR analysis.
Conditions: not given
Consider `Cc1c(COC(C)(C)C(=O)NCc2ccc(C(=O)O)cc2)nn(-c2ccc(Cl)cc2Cl)c1-c1ccc(Cl)cc1`, for which the pIC50 was 5.89. Turning to `Cc1c(COC(C)(C)C(=O)NCc2ccc(C(=O)O)cc2)nn(-c2ccc(Cl)cc2Cl)c1-c1ccc(C(F)(F)F)cc1`, the pIC50 is 7.52. Take `Cc1c(COC(C)(C)C(=O)NCc2ccc(C(=O)O)cc2)nn(-c2ccccc2Cl)c1-c1ccc(C(F)(F)F)cc1`: the pIC50 was 5.89.

Another assay deals with T2, Lysophosphatidic acid receptor 1. Kind of assay: Antagonist activity at human LPA1 receptor.
Conditions: not given
On to `CCC1CC1(NC(=O)c1ccc(OC)c(OCCc2cccc(C)c2)c1)C(=O)O` (stereo not given), for which the pIC50 is 7.00. On the same count and under the same terms, next, `COc1ccc(C(=O)NC2(C(=O)O)CCC(C)C2)cc1OCCc1cccc(C)c1` (stereo not given): 7.00; `COc1cc(C(=O)N(CCCc2ccccc2)Cc2ccc(Oc3ccccc3C(=O)O)cc2)cc(OC)c1OC`: 6.96. Still for that read-out and setting: next, `CSc1ccc(C(=O)NC2(C(=O)O)Cc3ccccc3C2)cc1OCCc1cccc(C)c1`: 7.00; `COc1ccc(C(=O)NC2(C(=O)O)CCCCCC2)cc1OCCc1cccc(Cl)c1`: 7.00; `COc1ccc(C(=O)NC2(C(=O)O)CC3CCC(C3)C2)cc1OCCc1cccc(C)c1` (stereo not given): 7.00.

`COc1ccc(C(=O)NC2(C(=O)O)CCCCCC2)cc1OCCc1cc(Cl)ccc1F` showed a pIC50 of 7.00.

A further assay has as its system HEK-293T. Kind of assay: Antiproliferative activity against human HEK293T cells assessed as inhibition of cell growth. In kind it is functional, cell-based.
Conditions: not given
With `CCCCCCCC/C=C/CCCCCCCC(=O)N[C@H](COP(=O)(O)O)Cc1ccc(OCc2ccccc2)cc1`, the negative logarithm of the IC50 (pIC50) was 6.89.

For another assay, the target named is T1, Lysophosphatidic acid receptor 5. Briefly: Antagonist activity at human LPA5 receptor assessed as inhibition of […] cAMP accumulation incubated for 20 mins.
Conditions: not given
Background: cAMP levels reflect the balance of adenylyl cyclase and phosphodiesterase activity.
On to `COc1cc2c(C(=O)N3CCCCC3)cn(-c3noc4ccc(C)cc34)c(=O)c2cc1OC`, for which the pIC50 was 7.42.

Staying with this assay, now noted: filed as antagonist.
For `CCN1CCCc2ccc(-n3cc(C(=O)N4CCCCC4)c4cc(OC)c(OC)cc4c3=O)cc21`, the half-maximal inhibitory concentration (IC50) is 38 nM.

The next assay has as its target T3, Lysophosphatidic acid receptor 2. Briefly: Antagonist activity at LPA2 receptor (unknown origin).
Conditions: not given
Regarding `Fc1ccc(CN2CCCCC2c2cc3ccccc3[nH]2)cc1` (stereo not given), the negative-log IC50 (pIC50) is > 6.30. As to `Cc1cccc(CN2C(C)CCCC2c2cc3cc(F)ccc3[nH]2)c1` (stereo not given), the pIC50 was > 6.30. On the same count and under the same terms, as for `Cc1cccc(CN2CCCCC2c2cc3ccccc3[nH]2)c1` (stereo not given), the figure is > 6.30.

The target is the same in another assay. Briefly: Inhibition of LPA2 receptor (unknown origin).
Conditions: not given
`Cc1cccc(C2CC2C(=O)Nc2nc3ccccc3[nH]2)c1` (stereo not given) gave a negative-log IC50 (pIC50) of 8.00. Turning to `O=C(Nc1nc2cc(C(F)(F)F)ccc2[nH]1)C1CC1c1ccccc1` (stereo not given), the pIC50 is 8.00. On the same count and under the same terms, next, `O=C(Nc1nc2ccccc2[nH]1)C1CC1c1ccccc1Cl` (stereo not given): 8.00; `O=C(Nc1nc2cc(Cl)ccc2[nH]1)C1CC1c1ccccc1` (stereo not given): 8.00; `O=C(Nc1nc2ccccc2[nH]1)C1CC1c1ccccc1` (stereo not given): > 8.00.

The record behind these values is ChEMBL document CHEMBL5241083, “Lysophosphatidic acid (LPA) receptor modulators: Structural features and recent development” (Eur J Med Chem, 2021).
